From patent publication US11859252B2, “Diagnostic and therapeutic methods for cancer” (Genentech, Inc., priority 2017, dated 2024) come the findings set out here.

Entries after “also recorded” stand apart in the source; their conditions may differ.

In experiment [1] the test system is 196 lung, colon, skin, and ovarian cancer cell lines. The experiment in a line: 196 cell line screen, HM95573 and cobimetinib co-dilution. It counts as cell-based. As for the experimental part:
Compounds were screened in nine-point dose response using a three-fold dilution. Cells were seeded into 384-well plates 24 hours prior to compound addition. Cells were then incubated with compound for 72 hours or 120 hours before assaying viability (CellTiter-Glo, Promega). Assays were performed in biological triplicate. Cells were incubated (37° C., 5% CO2) in RPMI-1640, 2.5% FBS (72 hour assay) or 5% FBS (120 hour assay), and 2 mM glutamine throughout the assay. The reported IC50 and mean viability metrics are as follows: IC50 is the dose at which the estimated inhibition is 50% relative to untreated wells (i.e., absolute IC50). Mean viability is equivalent to the area under the log-dose/viability curve divided by the total number of tested doses.
For combination synergy studies, cells were plated in 384-well plates (Corning) and treated with varying concentrations of compound, either alone or in combination for 72 hours. Cell viability was determined using CellTiter-Glo Luminescent Cell Viability Assay (Promega, G7573). Synergistic effects were determined using the Bliss independence analysis methods (Greco et al. Pharmacol. Rev. 47: 331-385, 1995; Chou and Talalay. Adv. Enzyme Regul. 22:27-55, 1984; Chou. Cancer Res. 70: 440-446, 2010; Bliss. Ann. Appl. Biol. 25: 31, 1939).

The subject of experiment [2] is KRAS mutant syngeneic CRC xenograft model CT26. The experiment in a line: CT26 tumor growth model. The note with it: 5 mg/kg each orally once a day, 21 days, vs either agent alone, FIGS. 5F-5G. The class given is in vivo.
For another experiment, the system named is pMEK, pERK, pRSK, pAKT. The experiment in a line: Immunoblot of pathway markers after compound treatment. To be noted: A549 and HCT-116; 1 μM HM95573, 250 nM cobimetinib; FIGS. 5D-5E. The class given is cell-based. As for the experimental part:
(§1) Cells lysed in lysis buffer (0.5% NP40, 20 mM Tris, pH 7.5, 137 mM NaCl, 10% glycerol, 1 mM EDTA) plus protease inhibitor mixture-complete mini (Roche Applied Science, 11836170001) and phosphatase inhibitor mix (Thermo, 78426). Lysates were centrifuged at 15,000 rpm for 10 minutes and the protein concentration determined using BCA (Thermo, 23227). Equal amounts of protein were subjected to SDS-PAGE NuPAGE 4-12% Bis-Tris Gel (Novex, WG-1403) and transferred to nitrocellulose membrane (BioRad, 170-4159). After blocking in blocking buffer (Li-Cor, 927-40000), membranes were incubated with the indicated primary antibodies and analyzed either by the addition of secondary antibodies IRDye 680LT Goat anti-Mouse IgG (H+L) (Li-Cor, 926-68050) or IRDye 800CW goat anti-Rabbit IgG (H+L) (Li-Cor, 926-32211). The membranes were visualized on the LiCor Odyssey CLx Scanner.

A further experiment has as its system BRAF-CRAF heterodimer. The experiment in a line: CRAF immunoprecipitation (RAF dimerization). The class given is cell-based. As for the experimental part:
(§2) Cells were plated and lysed as described in immunoblotting method. Cell lysates were incubated with anti-CRAF (Millipore 07-396) or anti-BRAF antibody (Millipore 07-453) and 50 μl of Protein A agarose beads (Millipore 16-125) for 2 h at 4° C. After washing with lysis buffer plus protease and phosphatase inhibitor mixtures, protein A beads were incubated with 0.4 μg of unactive MEK1 (Millipore 14-420) in 40 μl of kinase buffer (20 mM MOPS, pH 7.2, 25 mM β-glycerol phosphate, 5 mM EGTA, 1 mM sodium orthovanadate, 1 mM DTT, 120 μM ATP, 18 mM MgCl2) for 30 min at 30° C. Samples were then analyzed by Western blot.

In a further experiment the test system is pEGFR. The experiment can be described thus: Immunoblot of pEGFR after cobimetinib. It counts as cell-based. The note with it: cobimetinib 250 nM, 24 hours; FIG. 6K. As for the experimental part:
as §1

The test system of a further experiment is A549 cells. The experiment in a line: Clonogenic (colony growth) assay. It counts as cell-based. To be noted: 8-day clonogenic; 50-100 nM cobimetinib, 100 nM AZ-628. As for the experimental part: Cells were plated in duplicate in 6-well plates at 10,000 cells/well, allowed to attach overnight and treated for 8 days with the indicated compounds. Media with appropriate compounds was replenished every 72 hours. At 8 days cells were rinsed once with PBS, fixed and stained with crystal violet solution (Sigma Aldrich, HT90132) for 20 minutes and washed with water.

Experiment [3] has as its system A549 KRAS-mutant lung cancer cell line. The experiment in a line: Tool compound combination screen with AZ-628. The class given is cell-based. The note with it: 1 μM AZ-628 versus DMSO, FIG. 1D-1E. As for the experimental part: A compound library comprising 480 compounds arrayed in 9-point dose response was screened in the absence or presence of a fixed dose of either AZ-628 or DMSO in A549 cells. A549 cells were seeded into 384 well plates, and compound was added 24 h later. Cell viability was determined 120 h post-compound addition (CellTiter Glo). Curves were fitted, and both IC50 and mean viability metrics were calculated. The IC50 is the dose at which inhibition is 50% relative to untreated wells. The mean viability is the average of the fitted viabilities at each tested dose. Mean viability is equivalent to the area under the log-dose/viability curve divided by the total number of tested doses. All data were fitted using Genedata Screener (GDS) software. The combination metric was the difference in mean viability between the AZ-628 treated arm and the DMSO treated arm for each compound.

The next experiment concerns the target T1, RAF dimers (Homo sapiens, UniProt P04049+P15056).
T1 construct: Cobimetinib-induced RAF dimers were immunoprecipitated from A549 cells; endogenous in cells; A549, H2122 and HCT116 for cobimetinib induction
The experiment in a line: In vitro kinase assay of immunoprecipitated RAF with unactive MEK. It counts as biochemical. As for the experimental part:
as §2

The test system of the next experiment is RAS-GTP. The experiment can be described thus: Ras activity assay (RAF1-RBD pull-down). The class given is cell-based. As for the experimental part:
Levels of active GTP-loaded Ras were determined by GST-Raf-RBD pull-down assay (Thermo Scientific, 16117). In brief, GST-Raf-RBD fusion proteins were incubated with glutathione beads, and cells were collected in lysis buffer as recommended by the manufacturer. The cell lysates were incubated with the GST-Raf-RBD immobilized beads for 1.5 hours at 4° C. Bound proteins were eluted with SDS sample buffer and analyzed by Western blot.

In the next experiment the test system is pMEK. The experiment can be described thus: Immunoblot of pMEK after cobimetinib in KRAS mutant and wild-type cell lines. The class given is cell-based. To be noted: for pMEK levels after treatment: cobimetinib 24 hours. As for the experimental part: as §1
(A western blot detects proteins with antibodies after separation by electrophoresis.)

The subject of experiment [4] is NRAS mutant melanoma cell line. The experiment in a line: Viability of NRAS mutant melanoma versus BRAF-V600E and wild-type lines. The class given is cell-based. To be noted: separate study; FIGS. 8C and 8D. As for the experimental part:
Compounds were screened in nine-point dose response using a three-fold dilution. Cells were seeded into 384-well plates 24 hours prior to compound addition. Cells were then incubated with compound for 72 hours or 120 hours before assaying viability (CellTiter-Glo, Promega). Assays were performed in biological triplicate. […] Mean viability is equivalent to the area under the log-dose/viability curve divided by the total number of tested doses.

Experiment [5] deals with HCT116 colon xenograft tumor. The experiment in a line: HCT116 colon xenograft tumor model. To be noted: HCT116; LY-3009120 25 mg/kg IP QD; cobimetinib 5 mg/kg PO QD; FIG. 3A.
Protocol: The formulations were mixed well by vortexing before dosing. Test articles were stored in a refrigerator set to maintain a temperature range of 4° C.-7° C.
Only animals that appeared to be healthy and that were free of obvious abnormalities were used for each study. Tumor volumes were determined using digital calipers (Fred V. Fowler Company, Inc.) using the formula (L×W×W)/2. […] Mice were weighed twice a week using a standard scale.

T1 sequence (P04049 whole entry): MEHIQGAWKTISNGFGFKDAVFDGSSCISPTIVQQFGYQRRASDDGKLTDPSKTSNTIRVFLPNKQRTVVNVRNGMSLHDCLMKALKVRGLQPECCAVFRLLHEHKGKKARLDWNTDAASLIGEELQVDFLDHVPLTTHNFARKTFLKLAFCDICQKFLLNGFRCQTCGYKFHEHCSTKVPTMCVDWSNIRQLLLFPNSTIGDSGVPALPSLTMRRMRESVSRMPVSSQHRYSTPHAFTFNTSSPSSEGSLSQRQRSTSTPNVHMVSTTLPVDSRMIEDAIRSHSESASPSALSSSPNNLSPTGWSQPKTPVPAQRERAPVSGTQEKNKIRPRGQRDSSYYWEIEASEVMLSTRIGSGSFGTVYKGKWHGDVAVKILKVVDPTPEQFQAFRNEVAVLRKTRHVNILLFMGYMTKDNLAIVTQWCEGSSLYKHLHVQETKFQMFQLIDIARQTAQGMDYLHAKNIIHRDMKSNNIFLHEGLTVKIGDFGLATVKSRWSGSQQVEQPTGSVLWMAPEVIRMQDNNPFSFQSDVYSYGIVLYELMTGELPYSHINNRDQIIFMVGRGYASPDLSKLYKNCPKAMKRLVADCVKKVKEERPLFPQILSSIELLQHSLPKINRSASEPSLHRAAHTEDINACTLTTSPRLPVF
T1 sequence (P15056 2-766 limits assumed): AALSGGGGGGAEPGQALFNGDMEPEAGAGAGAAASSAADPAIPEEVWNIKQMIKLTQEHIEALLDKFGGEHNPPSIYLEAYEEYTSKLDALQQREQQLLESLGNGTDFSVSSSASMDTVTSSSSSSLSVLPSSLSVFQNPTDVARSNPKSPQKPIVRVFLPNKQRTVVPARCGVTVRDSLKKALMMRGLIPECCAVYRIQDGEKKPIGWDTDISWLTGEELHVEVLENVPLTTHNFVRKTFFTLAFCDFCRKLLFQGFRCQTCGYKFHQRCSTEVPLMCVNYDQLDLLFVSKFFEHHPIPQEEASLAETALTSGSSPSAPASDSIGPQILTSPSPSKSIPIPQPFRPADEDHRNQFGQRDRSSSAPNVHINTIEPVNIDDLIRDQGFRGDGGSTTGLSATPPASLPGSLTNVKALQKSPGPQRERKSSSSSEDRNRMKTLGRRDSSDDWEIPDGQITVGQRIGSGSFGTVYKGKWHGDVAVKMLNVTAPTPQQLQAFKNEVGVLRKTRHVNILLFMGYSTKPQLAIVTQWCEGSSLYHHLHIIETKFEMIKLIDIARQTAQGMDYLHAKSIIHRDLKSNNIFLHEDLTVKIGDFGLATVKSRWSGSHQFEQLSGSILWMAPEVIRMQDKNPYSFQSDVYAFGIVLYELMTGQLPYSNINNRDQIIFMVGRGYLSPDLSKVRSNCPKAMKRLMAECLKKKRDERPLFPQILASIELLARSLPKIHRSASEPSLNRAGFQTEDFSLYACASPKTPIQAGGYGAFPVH

As for `Cc1ccc2c(Nc3cccc(Cl)c3F)nccc2c1NC(=O)c1csc2c(N)ncnc12` [HM95573], the “association of combination sensitivity with KRAS-G13D” value in experiment [1] (HM95573 and cobimetinib, colorectal and lung lines, FIG. 6D) is “This trend was most evident in colorectal cancer lines”. For the same molecule, the “synergy score (positive Bliss excess) with cobimetinib by genotype” value in [1] (co-dilution with cobimetinib, three days, FIG. 5H) was “significantly higher synergy scores were observed in RAS mutant cell lines compared to either BRAF-V600 mutants or wild-type; also recorded: greater synergy in RAS mutant cell lines and a subset of RAS/RAF wild-type cell lines relative to BRAF-V600 cell lines”. Further, in experiment [2], the “tumor growth inhibition (TGI), combination with cobimetinib” value is recorded as “improved tumor growth inhibition (TGI) in vivo”. In the experiment on pMEK, pERK, pRSK, pAKT, the “combination activity with cobimetinib on pMEK, pERK, pRSK” value is recorded as “combination activity was also observed; also recorded: combination activity is observed”.
Regarding `O=C(c1ccc(F)c(F)c1Nc1ccc(I)cc1F)N1CC(O)([C@@H]2CCCCN2)C1` [cobimetinib], the “concentration at which BRAF-CRAF heterodimer formation and increase in kinase activity occur” value in the experiment with BRAF-CRAF heterodimer (A549, dose-dependent, FIG. 4E) was in the range of 50 to 100 nM. Further, in the experiment with BRAF-CRAF heterodimer (KRAS mutant cell lines (A549, H2122, and HCT116), FIG. 4A), the “BRAF co-immunoprecipitation with CRAF” value is reported as “BRAF strongly co-immunoprecipitated with CRAF”. Also, the “EGFR activation (pEGFR levels)” value in the experiment on pEGFR was “little evidence of EGFR activation”. Also, in the experiment on A549 cells, the “single-agent effect on cell growth” value is reported as “had little effect on cell growth on their own”. Also, the “hit ranking / mean viability difference with AZ-628” value in experiment [3] was “top hit; also recorded: scored highest among the compounds tested”. Moreover, on RAF dimers (KRAS mutant cell lines, vs DMSO, FIG. 4A), the “kinase activity of RAF dimers after treatment” value is given as “highly active”. Further, at RAF dimers (colorectal lines with or without synergy, cobimetinib, FIG. 5B-5C), the “pMEK levels in in vitro RAF kinase assay” value is “strong increases in pMEK levels after cobimetinib treatment were observed, primarily in the lines showing synergy”. The RAS-GTP levels result with RAS-GTP (KRAS mutant lines, cobimetinib treatment, FIG. 4A) is “elevated RAS-GTP levels at baseline and upon cobimetinib treatment; also recorded: increased RAS-GTP levels”. Besides, the “active RAS-GTP in response to treatment” value in the experiment on RAS-GTP (panel of colorectal cancer cell lines, FIG. 5I) is reported as “Only cell lines showing synergy showed increased active RAS-GTP in response to cobimetinib treatment”. The “pMEK levels after treatment” value was “an increase in the pMEK levels in the KRAS mutant cells but not the KRAS wild-type cells” with pMEK (KRAS mutant vs KRAS wild-type cells, FIG. 4A); “an increase in the pMEK levels in the KRAS mutant and wild-type synergistic cells but not the KRAS mutant and wild-type non-synergistic cells” in the experiment with pMEK (synergistic vs non-synergistic colon and lung lines, FIGS. 4B-4D). Also, the “induction of pMEK, KRAS-G13D vs non-KRAS-G13D” value in the experiment with pMEK (colorectal cell lines, cobimetinib 250 nM, 24 hr, FIG. 6E) was “stronger induction of pMEK in G13D cell lines; also recorded: more enhanced induction of pMEK following MEK inhibition relative to other KRAS mutants”. Moreover, the “cell viability and 1050, NRAS mutant vs BRAF-V600E” value in [4] is “showed greater efficacy in the BRAF-V600E cell line relative to the NRAS mutant cell line”. Besides, the “tumor growth, single agent” value in experiment [5] is recorded as “modestly inhibited tumor growth”.
